Consider 2 compounds from patent US6710017B2, “Compositions and methods for controlling algae in recirculating water systems” (Avecia, Inc., priority 2000, dated 2004).

Data set [1] can be described thus: Margin of exposure versus NOEL (estimated total daily dose to a child in a swimming pool). The following applies: agricultural fungicides, Table B. The method, then: The herbicide preferably has a margin of exposure versus no observed effect level (“NOEL”) value of greater than 10, more preferably greater than 50, especially greater than 80, and more especially greater than 99. The margin of exposure versus NOEL is determined by estimating the total daily dose of the herbicide to a child in a swimming pool and determining the ratio of the NOEL to this. The total daily exposure may be estimated as follows. Oral exposure is estimated by assuming that the swimmer is in the water 3 hours per day, and that the swimmer ingests 50 milliliters of pool water per hour of swimming. It is also assumed that the herbicide will be present in the pool water at a concentration of 10 parts per million, equivalent to 10 milligrams per liter of pool water. The daily oral exposure is therefore estimated as the product of the swimming duration, the ingestion rate, and the concentration in the pool water. Dermal exposure is estimated by assuming the swimmer is in the water 3 hours per day, that the total body surface area, 8800 square centimeters, is immersed in the water, and that the herbicide permeates the skin at a rate, expressed in centimeters per hour, predicted by a model for skin permeation based on chemical structure, the Skinperm model, developed by W. F. ten Berge. A short description of the Skinperm model, can be accessed at: http://home.wxs.nl/˜wtberge/, which is incorporated herein by reference. The daily dermal exposure is then estimated as the product of the permeation rate, the concentration of the herbicide in the pool water (expressed in milligrams per cubic centimeter), the swimming duration, and the total body surface area. The total daily exposure is estimated as the sum of the daily oral and daily dermal exposure. The daily dose, expressed in milligrams per kilogram bodyweight per day, is then estimated as the total daily exposure divided by an assumed body weight of 22 kilograms.

The conditions of data set [2]: agricultural fungicides, Table B.
The conditions of data set [3]: agricultural fungicides, Table B; water; cited from earlier work.

Values after ≈ are worked out from the molar mass of the structure shown.

The Solubility is how much of the substance goes into solution per volume. For `CC(C)(C)C(=O)C(Oc1ccc(Cl)cc1)n1cncn1` (stereo not drawn) [Triademefon, 1-(4-chlorophenoxy)-3,3-dimethyl-1-(1H-1,2,4-triazol-1-yl)-2-butanone], the “Margin of Exposure vs NOEL” value in data set [1] is recorded as 104. Also, the “Margin of Exposure vs. RfD” value in data set [2] was found to be 0.4. Moreover, in data set [3], the Solubility was 260 µg/mL (≈ 885 µM).
For `CC(C)(C)C(O)C(Oc1ccc(Cl)cc1)n1cncn1` (stereo not drawn) [Triademenol, Beta-(4-chlorophenoxy)-alpha-(1,1-dimethylethyl)-1-1H-1,2,4-triazole-1-ethanol], in data set [1], the “Margin of Exposure vs NOEL” value is 50. The “Margin of Exposure vs. RfD” value in data set [2] stood at 0.5. Also, in data set [3], the Solubility was 260 µg/mL (≈ 879 µM).
